The values below come from patent US9243247B2, “Composition for promoting apoptosis or inhibiting cell growth, comprising epstein-barr virus microrna” (Catholic University Industry Academic Cooperation Foundation, priority 2011, dated 2016).

Assay type in all cases: cell-based
Data set [1] has as its system AGS cell strain. The experiment in a line: Measurement of apoptosis (Annexin V staining, FACS). As to conditions: for Relative Apoptotic cell: AGS, mimic 10 nM, 10 uM 5-FU 24 h after transfection, then 48 hours, Annexin V, relative to scrambled control (=1), n=9; for effect on cell growth and apoptosis (summary statement): mimics transfected to AGS, tumor cell strain not infected with EBV. As for the experimental part:
Immediately after the AGS cell strain, which is an EBV-negative cell strain, was divided was divided into a 6-well plate such that 2×10^5 AGS cells were allocated to each well, a synthesized miRNA (10 nM) was transfected by using G-fectin and the resulting mixture was cultured at 37 t in an incubatorTwenty four hours after the transfection, 10 uM of 5-FU was treated and the resulting mixture was cultured in an incubator at 37° C. for 48 hours. The cells were detached by using Trypsin-EDTA and washed with PBS two times. Afterwards, the cells were treated with a PE Annexin V Apoptosis Detection Kit and the changed ratio of apoptotic cell was investigated by FACS (FIG. 7).
Immediately after the AGS cell strain, which is an EBV-negative cell strain, is divided into a 6-well plate such that 2×10^5 AGS cells were allocated to each well, a synthesized miRNA (10 nM) was transfected by using G-fectin and the resulting mixture was cultured at 37° C. Twenty four hours after the transfection, 10 uM of 5-FU, which is an anti-cancer agent, was treated and the resulting mixture was cultured in an incubator at 37° C. for 48 hours. The cells were detached by using Trypsin-EDTA and washed with PBS two times. Afterwards, the cells were treated with a PE Annexin V Apoptosis Detection Kit and the ratio of cells where apoptosis took place was measured by FACS.

In data set [2] the test system is AGS cell strain. The experiment in a line: Effect on cell cycle (propidium iodide staining, FACS, sub G1). As to conditions: mimic 10 nM, 10 uM 5-FU 24 h after transfection, then 48 hours, relative to scrambled control (=1). How it is done:
The AGS cells were divided into a 96-well plate such that 2×10^5 AGS cells were allocated to each well, and synthesized miRNAs (10 nM) were transfected and cultured at 37° C. in an incubator. Twenty four hours after the transfection, 10 uM of 5-FU, which is an anti-cancer agent, was treated in one case or not treated in another case, and then the resulting mixture was cultured in an incubator at 37° C. for 48 hours. The cells were detached by using Trypsin-EDTA and washed with PBS two times.
Immediately after the AGS cell strains, which are EBV-negative cell strains, were divided into a 6-well plate such that 2×10^5 AGS cells were allocated to each well, a synthesized miRNA (10 nM) was transfected by using G-fectin and cultured at 37° C. in an incubator. Twenty four hours after the transfection, 10 uM of 5-FU was treated and the resulting mixture was cultured at 37° C. in an incubator for 48 hours. The cells were detached by using Trypsin-EDTA and washed with PBS two times. Afterwards, DNA was stained by propidium iodide staining and the ratio of cells where cell cycle was changed was investigated by FACS.

For data set [3], the system named is AGS cell strain. Briefly: Cell growth test (CCK-8 assay) after transfection of BART miRNA mimics. Particulars: mimic 10 nM, 72 hours after transfection, relative to scrambled control (=1). How it is done: An AGS cell strain (Korean Cell Line Bank), which is a stomach cancer cell strain, was cultured in an RPMI1640 (Gibco) culture medium including 10% fetal bovine serum. Mature type synthesized BART miRNAs were transfected to the AGS cell strain by using G-fectin (Genolution) according to a protocol of the manufacture.
To investigate the effect of individual EBV BART miRNAs on the AGS cell strain, the synthesized miRNAs were transfected to the AGS cell strain and, after 72 hours, cells were counted by CCK-8 assay.
Immediately after the AGS cell strain, which is an EBV-negative cell strain, was divided into 96-well plate having 1×10^3 cells/well, a synthesized miRNA (10 nM) was transfected by using G-fectin. After the transfection, according to the experimental objective, the cells were cultured at 37° C. in an incubator, and then CCK-8 was divided among the wells by allocating 10 μl of CCK-8 to each well and the resulting mixture was cultured in an incubator at 37° C. for two hours. Then, the light absorbance was measured with an ELISA measuring instrument.
By the method described in Example 3, miR-BART5-5p mimic or miR-BART15-3p mimic (10 nM) were transfected to the AGS cell strain, and the effect thereof on cell growth was investigated over time.
miR-BART5-5p, miR-BART15-3p, and miR-BART20-3p were transfected to the AGS cell strain (1×10^3 cells/well) in a concentration of 1, 3, 10, and 30 nM, and the effect on cell growth was investigated. Immediately after the AGS cell strain was divided into a 96-well plate such that 1×10^3 AGS cells were allocated to each well, a synthesized miRNA was transfected by using G-fectin. Seventy two hours after the transfection, CCK-8 was divided among the wells by allocating 10 μl of CCK-8 to each well, and the resulting mixture was cultured at 37° C. in an incubator for two hours.
Background: Tetrazolium dyes change colour on reduction, which living cells bring about.

Take “BART17-3p: EBV BART miRNA mimic, double stranded RNA; sense SEQ NO: 27, antisense SEQ NO: 28 (sense UGUAUGCCUGGUGUCCCCUUAGU; antisense ACUAAGGGGACACCAGGCAUACA; chemistry not given here)”: the figures for the “Relative Apoptotic cell” value in the data set on AGS cell strain [1] and with AGS cell strain [1] (listed as 17-3p) were 1.088 and “significantly higher”, respectively. Further, the “effect on cell growth and apoptosis (summary statement)” value (“effect on cell growth and apoptosis” for short) with AGS cell strain [1] is “inhibit cell growth and promote apoptosis”. The figures for the “Relative Sub G1” value with AGS cell strain [2] and in the data set with AGS cell strain [2] (listed as 17-3p) were 1.067 and “increased”, respectively. For the same substance, the “Relative Cell Growth” value in the data set with AGS cell strain [3] (n=9) is 0.7865; in the data set with AGS cell strain [3] (n=9, listed as miR-BART17-3p) it was “inhibited cell growth”.
Turning to “BART14-5p: EBV BART miRNA mimic, double stranded RNA; sense SEQ NO: 81, antisense SEQ NO: 82 (sense UACCCUACGCUGCCGAUUUACA; antisense UGUAAAUCGGCAGCGUAGGGUA; chemistry not given here)”, the “Relative Apoptotic cell” value in the data set on AGS cell strain [1] was determined as 1.054. Moreover, the “Relative Sub G1” value in the data set with AGS cell strain [2] was 0.9076. Moreover, in the data set with AGS cell strain [3] (n=9), the “Relative Cell Growth” value amounted to 1.408.
For the substance “BART2-3p: EBV BART miRNA mimic, double stranded RNA; sense SEQ NO: 87, antisense SEQ NO: 88 (sense AAGGAGCGAUUUGGAGAAAAUAAA; antisense UUUAUUUUCUCCAAAUCGCUCCUU; chemistry not given here)”, in the data set with AGS cell strain [1], the “Relative Apoptotic cell” value was found to be 1.062; the “effect on cell growth and apoptosis” value was “inhibit cell growth and promote apoptosis”. In addition, in the data set with AGS cell strain [1] (listed as 2-3p), the “Relative Apoptotic cell” value is “significantly higher”. In addition, the “Relative Sub G1” value in the data set with AGS cell strain [2] came to 1.178. Also, the “Relative Cell Growth” value in the data set with AGS cell strain [3] (n=9) was 1.433.
Turning to “BART18-5p: EBV BART miRNA mimic, double stranded RNA; sense SEQ NO: 37, antisense SEQ NO: 38 (sense UCAAGUUCGCACUUCCUAUACA; antisense UGUAUAGGAAGUGCGAACUUGA; chemistry not given here)”, the “Relative Apoptotic cell” value with AGS cell strain [1] is 1.202; in the data set with AGS cell strain [1] (listed as 18-5p), “significantly higher”. Moreover, in the data set on AGS cell strain [1], the “effect on cell growth and apoptosis” value is “inhibit cell growth and promote apoptosis”. Besides, the “Relative Sub G1” value with AGS cell strain [2] is given as 0.9828. Moreover, the “Relative Cell Growth” value in the data set with AGS cell strain [3] (n=9) was determined as 1.395.
As to “BART4-5p: EBV BART miRNA mimic, double stranded RNA; sense SEQ NO: 5, antisense SEQ NO: 6 (sense GACCUGAUGCUGCUGGUGUGCU; antisense AGCACACCAGCAGCAUCAGGUC; chemistry not given here)”, the “Relative Apoptotic cell” value in the data set on AGS cell strain [1] is given as 1.204; with AGS cell strain [1] (listed as miR-BART4-5p) it was “significantly higher”. For the same substance, the “effect on cell growth and apoptosis” value with AGS cell strain [1] is “inhibit cell growth and promote apoptosis”. Further, the “Relative Sub G1” value was 1.236 in the data set with AGS cell strain [2] and “increased” in the data set on AGS cell strain [2] (listed as miR-BART4-5p). The “Relative Cell Growth” value with AGS cell strain [3] (n=9) was determined as 0.9348.
As for “BART8-3p: EBV BART miRNA mimic, double stranded RNA; sense SEQ NO: 47, antisense SEQ NO: 48 (sense GUCACAAUCUAUGGGGUCGUAGA; antisense UCUACGACCCCAUAGAUUGUGAC; chemistry not given here)”, in the data set with AGS cell strain [1], the “Relative Apoptotic cell” value came to 1.072. Also, the “Relative Sub G1” value in the data set with AGS cell strain [2] stood at 0.9616. In the data set with AGS cell strain [3] (n=9), the “Relative Cell Growth” value came to 1.396.
As for “BART12-5p: EBV BART miRNA mimic, double stranded RNA; sense SEQ NO: 65, antisense SEQ NO: 66 (sense ACCCGCCCAUCACCACCGGAC; antisense GUCCGGUGGUGAUGGGCGGGU; chemistry not given here)”, the “Relative Apoptotic cell” value in the data set on AGS cell strain [1] worked out at 0.9458. The “Relative Sub G1” value was 1.135 in the data set on AGS cell strain [2] and “increased” with AGS cell strain [2] (listed as 12-5p). Besides, in the data set on AGS cell strain [3] (n=9), the “Relative Cell Growth” value was found to be 1.159.
For “BART21-5p: EBV BART miRNA mimic, double stranded RNA; sense SEQ NO: 33, antisense SEQ NO: 34 (sense UCACUAGUGAAGGCAACUAAC; antisense GUUAGUUGCCUUCACUAGUGA; chemistry not given here)”, in the data set on AGS cell strain [1], the “Relative Apoptotic cell” value is given as 0.9207. Also, in the data set with AGS cell strain [2], the “Relative Sub G1” value is listed as 1.087. The “Relative Cell Growth” value with AGS cell strain [3] (n=9) stood at 1.304.
As for “BART3-5p: EBV BART miRNA mimic, double stranded RNA; sense SEQ NO: 1, antisense SEQ NO: 2 (sense ACCUAGUGUUAGUGUUGUGCU; antisense AGCACAACACUAACACUAGGU; chemistry not given here)”, the “Relative Apoptotic cell” value in the data set on AGS cell strain [1] amounted to 1.016. The “Relative Sub G1” value with AGS cell strain [2] was 0.8224. In addition, the “Relative Cell Growth” value with AGS cell strain [3] (n=9) came out at 1.272.
Take “BART19-5p: EBV BART miRNA mimic, double stranded RNA; sense SEQ NO: 69, antisense SEQ NO: 70 (sense ACAUUCCCCGCAAACAUGACAUG; antisense CAUGUCAUGUUUGCGGGGAAUGU; chemistry not given here)”: the “Relative Apoptotic cell” value in the data set on AGS cell strain [1] turned out to be 1.071. Besides, the “Relative Sub G1” value in the data set with AGS cell strain [2] was 1.349; in the data set with AGS cell strain [2] (listed as 19-5p), “increased”. For the same substance, in the data set with AGS cell strain [3] (n=9), the “Relative Cell Growth” value came out at 1.151.
For the substance “BART19-3p: EBV BART miRNA mimic, double stranded RNA; sense SEQ NO: 71, antisense SEQ NO: 72 (sense UUUUGUUUGCUUGGGAAUGCU; antisense AGCAUUCCCAAGCAAACAAAA; chemistry not given here)”, the “Relative Apoptotic cell” value in the data set with AGS cell strain [1] is recorded as 0.9742. The results for the “Relative Sub G1” value in the data set with AGS cell strain [2] and with AGS cell strain [2] (listed as 19-3p) were 1.244 and “increased”, respectively. Besides, in the data set with AGS cell strain [3] (n=9), the “Relative Cell Growth” value was found to be 1.237.
Consider “BART8-5p: EBV BART miRNA mimic, double stranded RNA; sense SEQ NO: 45, antisense SEQ NO: 46 (sense UACGGUUUCCUAGAUUGUACAG; antisense CUGUACAAUCUAGGAAACCGUA; chemistry not given here)”, for which the “Relative Apoptotic cell” value with AGS cell strain [1] is listed as 0.9757. Also, the “Relative Sub G1” value in the data set with AGS cell strain [2] is 1.013. The “Relative Cell Growth” value with AGS cell strain [3] (n=9) amounted to 1.448.
